Test results as given in PubChem BioAssay AID2060899 (Molecular Pharmacology Branch, DTP, NCI, 2025).

Tested on: 565726-208-R1-J5-PDC complex spheroids, growth inhibition
Experiment: Anticancer human tumor 565726-208-R1-J5-PDC patient-derived pancreatic adenocarcinoma cell line growth inhibition [RAS]
Details: for viability, T/C: stronger effect = lower value; active = viability on the fitted dose curve at most 10% of control; inactive = the rest
How it was run: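 Multi-cell-type spheroids: tumor cells plus HUVEC endothelial cells and mesenchymal stem cells. RAS-pathway inhibitors were combined with targeted agents, each dosed in half-log steps down from clinical Cmax, or from 10 microM when Cmax was unknown.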

[1] = curve of first compound, second compound 0.000949 µM
[2] = curve of first compound, second compound 0.003 µM
[3] = curve of first compound, second compound 0.00949 µM
[4] = curve of first compound, second compound 0.03 µM
[5] = curve of first compound, second compound 0.0949 µM
[6] = curve of first compound, second compound 0.3 µM
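Also: spheroids exposed to compounds for seven days before readout.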
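For viability, T/C in this document: 100% = DMSO vehicle control viability.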

CCc1c2c(nc3ccc(O)cc13)-c1cc3c(c(=O)n1C2)COC(=O)[C@]3(O)CC + CCn1c(-c2cccnc2C(C)OC)c2c3cc(ccc31)N1CCOC(CC(NC(=O)C(C(C)C)N(C)C(=O)C3(F)CCN(C(=O)C#CC(C)(C)N(C)C)CC3)C(=O)N3CCCC(N3)C(=O)OCC(C)(C)C2)C1
2.34 nM: IC50 [1]
active: viability, T/C (second compound 0.000949 µM, first compound 0.0949 µM) 8.88% | viability, T/C (second compound 0.000949 µM, first compound 0.3 µM) 4.44% | viability, T/C (second compound 0.003 µM, first compound 0.0949 µM) 10.2% | viability, T/C (second compound 0.003 µM, first compound 0.3 µM) 5.03% | viability, T/C (second compound 0.00949 µM, first compound 0.0949 µM) 8.85% | viability, T/C (second compound 0.00949 µM, first compound 0.3 µM) 4.19% | viability, T/C (second compound 0.03 µM, first compound 0.0949 µM) 8.23% | viability, T/C (second compound 0.03 µM, first compound 0.3 µM) 3.69% | viability, T/C (second compound 0.0949 µM, first compound 0.0949 µM) 6% | viability, T/C (second compound 0.0949 µM, first compound 0.3 µM) 2.81% | viability, T/C (second compound 0.3 µM, first compound 0.03 µM) 8.71% | viability, T/C (second compound 0.3 µM, first compound 0.0949 µM) 5.1% | viability, T/C (second compound 0.3 µM, first compound 0.3 µM) 2.77%
2.33 nM: IC50 [3]
2.06 nM: IC50 [4]
inactive: viability, T/C (second compound 0.000949 µM, first compound 0.000949 µM) 79.2% | viability, T/C (second compound 0.000949 µM, first compound 0.003 µM) 39.5% | viability, T/C (second compound 0.000949 µM, first compound 0.00949 µM) 25.5% | viability, T/C (second compound 0.000949 µM, first compound 0.03 µM) 14.4% | viability, T/C (second compound 0.003 µM, first compound 0.000949 µM) 80.3% | viability, T/C (second compound 0.003 µM, first compound 0.003 µM) 33.2% | viability, T/C (second compound 0.003 µM, first compound 0.00949 µM) 23.6% | viability, T/C (second compound 0.003 µM, first compound 0.03 µM) 15.5% | viability, T/C (second compound 0.00949 µM, first compound 0.000949 µM) 79% | viability, T/C (second compound 0.00949 µM, first compound 0.003 µM) 38.5% | viability, T/C (second compound 0.00949 µM, first compound 0.00949 µM) 27% | viability, T/C (second compound 0.00949 µM, first compound 0.03 µM) 13.2% | viability, T/C (second compound 0.03 µM, first compound 0.000949 µM) 75.5% | viability, T/C (second compound 0.03 µM, first compound 0.003 µM) 34.5% | viability, T/C (second compound 0.03 µM, first compound 0.00949 µM) 23.8% | viability, T/C (second compound 0.03 µM, first compound 0.03 µM) 13.5% | viability, T/C (second compound 0.0949 µM, first compound 0.000949 µM) 73.3% | viability, T/C (second compound 0.0949 µM, first compound 0.003 µM) 35.2% | viability, T/C (second compound 0.0949 µM, first compound 0.00949 µM) 20.5% | viability, T/C (second compound 0.0949 µM, first compound 0.03 µM) 11.1% | viability, T/C (second compound 0.3 µM, first compound 0.000949 µM) 67.1% | viability, T/C (second compound 0.3 µM, first compound 0.003 µM) 30% | viability, T/C (second compound 0.3 µM, first compound 0.00949 µM) 16.7%
2.11 nM: IC50 [2]
1.64 nM: IC50 [6]
1.98 nM: IC50 [5]

NC1c2ccccc2OC12CCN(c1cnc3c(N4CCCc5ncccc54)n[nH]c3n1)CC2 (stereo unspecified)
inactive: viability, T/C (compound 0.0316 µM) 82.2% [middle of 4 runs] | viability, T/C (compound 0.316 µM) 72.5% [middle of 4 runs] | viability, T/C (compound 1 µM) 66% [middle of 4 runs]
> 10000 nM: IC50 (curve of compound)

C=CC(=O)Nc1cc(Nc2nccc(-c3cn(C)c4ccccc34)n2)c(OC)cc1N(C)CCN(C)C
> 1000 nM: IC50 (curve of compound)
inactive: viability, T/C (compound 0.0316 µM) 92.9% [middle of 4 runs] | viability, T/C (compound 0.1 µM) 85.7% [middle of 4 runs]

CCC(CC)c1cc(NC2CCC(N)C2)n2nccc2n1 (stereo unspecified)
1.5% [middle of 4 runs]: viability, T/C (compound 3.16 µM)
active: viability, T/C (compound 10 µM) 1.88% [middle of 4 runs]
1.57 µM [middle of 4 runs]: IC50 (curve of compound)
inactive: viability, T/C (compound 0.316 µM) 105% [middle of 4 runs] | viability, T/C (compound 1 µM) 81.9% [middle of 4 runs]

C[C@@H](NC(=O)c1ncnc(N)c1Cl)c1ncc(C(=O)Nc2cc(C(F)(F)F)c(Cl)cn2)s1 + CCn1c(-c2cc(N3CCN(C)CC3)cnc2C(C)OC)c2c3cc(ccc31)-c1csc(n1)CC(NC(=O)C1CC1C)C(=O)N1CCCC(N1)C(=O)OCC(C)(C)C2
inactive: viability, T/C (second compound 0.000949 µM, first compound 0.0316 µM) 65.1% | viability, T/C (second compound 0.000949 µM, first compound 0.1 µM) 73.5% | viability, T/C (second compound 0.000949 µM, first compound 0.316 µM) 76.7% | viability, T/C (second compound 0.000949 µM, first compound 1 µM) 69.5% | viability, T/C (second compound 0.000949 µM, first compound 3.16 µM) 72.1% | viability, T/C (second compound 0.000949 µM, first compound 10 µM) 58% | viability, T/C (second compound 0.003 µM, first compound 0.0316 µM) 61% | viability, T/C (second compound 0.003 µM, first compound 0.1 µM) 57.5% | viability, T/C (second compound 0.003 µM, first compound 0.316 µM) 57.3% | viability, T/C (second compound 0.003 µM, first compound 1 µM) 58.1% | viability, T/C (second compound 0.003 µM, first compound 3.16 µM) 56.8% | viability, T/C (second compound 0.003 µM, first compound 10 µM) 46.5% | viability, T/C (second compound 0.00949 µM, first compound 0.0316 µM) 48% | viability, T/C (second compound 0.00949 µM, first compound 0.1 µM) 48.2% | viability, T/C (second compound 0.00949 µM, first compound 0.316 µM) 49.9% | viability, T/C (second compound 0.00949 µM, first compound 1 µM) 48% | viability, T/C (second compound 0.00949 µM, first compound 3.16 µM) 52.5% | viability, T/C (second compound 0.00949 µM, first compound 10 µM) 40.8% | viability, T/C (second compound 0.03 µM, first compound 0.0316 µM) 34.9% | viability, T/C (second compound 0.03 µM, first compound 0.1 µM) 39.1% | viability, T/C (second compound 0.03 µM, first compound 0.316 µM) 36.2% | viability, T/C (second compound 0.03 µM, first compound 1 µM) 37.4% | viability, T/C (second compound 0.03 µM, first compound 3.16 µM) 40.3% | viability, T/C (second compound 0.03 µM, first compound 10 µM) 31.4% | viability, T/C (second compound 0.0949 µM, first compound 0.0316 µM) 31.2% | viability, T/C (second compound 0.0949 µM, first compound 0.1 µM) 32.2% | viability, T/C (second compound 0.0949 µM, first compound 0.316 µM) 31.7% | viability, T/C (second compound 0.0949 µM, first compound 1 µM) 32.5% | viability, T/C (second compound 0.0949 µM, first compound 3.16 µM) 32.9% | viability, T/C (second compound 0.0949 µM, first compound 10 µM) 29.1% | viability, T/C (second compound 0.3 µM, first compound 0.0316 µM) 24.6% | viability, T/C (second compound 0.3 µM, first compound 0.1 µM) 27.8% | viability, T/C (second compound 0.3 µM, first compound 0.316 µM) 26.7% | viability, T/C (second compound 0.3 µM, first compound 1 µM) 29.8% | viability, T/C (second compound 0.3 µM, first compound 3.16 µM) 31% | viability, T/C (second compound 0.3 µM, first compound 10 µM) 28.2%
> 10000 nM: IC50 [1] | IC50 [2]
< 31.6 nM: IC50 [3] | IC50 [4] | IC50 [5] | IC50 [6]
